As a reminder, the DC50 is the concentration giving 50% degradation. What is called Dmax is the largest share of the target that was removed.

The text below walks through data of patent publication US20260092061A1, “COMPOUNDS FOR TARGETED PROTEIN DEGRADATION” (Amphista Therapeutics Limited, priority 2022, published 2026).

Molecules are shown by their SMILES.

This experiment has as its target T1, BRD9 (Homo sapiens, UniProt Q9H8M2).
T1 sequence (Q9H8M2 1-597): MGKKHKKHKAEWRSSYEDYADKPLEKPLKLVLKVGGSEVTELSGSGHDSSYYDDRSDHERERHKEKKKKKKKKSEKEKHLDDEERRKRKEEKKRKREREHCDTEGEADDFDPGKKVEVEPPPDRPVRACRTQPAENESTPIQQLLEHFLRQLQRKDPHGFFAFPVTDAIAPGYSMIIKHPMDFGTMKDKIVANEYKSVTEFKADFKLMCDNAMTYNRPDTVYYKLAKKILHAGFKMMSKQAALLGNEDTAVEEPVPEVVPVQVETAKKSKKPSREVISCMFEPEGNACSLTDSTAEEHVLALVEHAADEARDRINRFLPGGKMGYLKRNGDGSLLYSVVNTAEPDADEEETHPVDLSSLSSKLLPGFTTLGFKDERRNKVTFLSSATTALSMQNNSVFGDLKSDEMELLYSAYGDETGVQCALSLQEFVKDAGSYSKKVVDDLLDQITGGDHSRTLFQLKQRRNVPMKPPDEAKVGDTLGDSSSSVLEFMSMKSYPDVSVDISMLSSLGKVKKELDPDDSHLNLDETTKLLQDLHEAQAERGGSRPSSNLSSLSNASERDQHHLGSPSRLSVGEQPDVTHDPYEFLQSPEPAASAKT
Put plainly: Degradation of BRD9 (IF), immunofluorescence in MV4-11 cells, 24 hours (Assay Protocol 2). The format is cell-based. The arrangement: A suspension of MV4-11 cells (ATCC CRL-9591) was prepared; host or cells: MV4-11. Particulars: BRD9 degradation; for DC50: Assay protocol 2, read-out: DC50; for Dmax: MV4-11, Assay protocol 2, read-out: Dmax. An outline of the steps: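 MV4-11 cells treated with compound 24 h at 37° C., then fixed, permeabilised and immunostained for BRD9 (anti-BRD9 E4Q3F, Alexa 647 secondary, Hoechst counterstain). High-content imaging quantified nuclear BRD9 signal; % BRD9 remaining normalised to DMSO and 100 nM CFT-8634 controls.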

Regarding `COc1cc(-c2cn(C)c(=O)c(C)c2C)cc(OC)c1CN1CCN(Cc2cccc3c2CCN(C(=O)/C(C#N)=C/C2(C)CCOCC2)[C@@H]3C)C2(CC2)C1` (single isomer, unassigned) [Compound B193, (E/Z)-2-(5-((7-(2,6-dimethoxy-4-(1,4,5-trimethyl-6-oxo-1,6-dihydropyridin-3-yl)benzyl)-4,7-diazaspiro[2.5]octan-4-yl)methyl)-1-methyl-1,2,3,4-tetrahydroisoquinoline-2-carbonyl)-3-(4-methyltetrahydro-2H-pyran-4-yl)acrylonitrile], the DC50 was less than 0.00125 µM and the Dmax is greater than 75%.

As to `COc1cc(-c2cn(C)c(=O)c(C)c2C)cc(OC)c1CN1CCN(Cc2cccc3c2CCN(C(=O)/C(C#N)=C/C2(C)CCOCC2)[C@H]3C)C2(CC2)C1` (single isomer, unassigned) [Compound B194, (E/Z)-2-(5-((7-(2,6-dimethoxy-4-(1,4,5-trimethyl-6-oxo-1,6-dihydropyridin-3-yl)benzyl)-4,7-diazaspiro[2.5]octan-4-yl)methyl)-1-methyl-1,2,3,4-tetrahydroisoquinoline-2-carbonyl)-3-(4-methyltetrahydro-2H-pyran-4-yl)acrylonitrile], the DC50 fell in the range of 0.00125 to 0.01 µM and the maximal degradation (Dmax) is 40 to 70%.

For the compound `COc1cc(-c2cn(C)c(=O)c(C)c2C)cc(OC)c1CN1CCN(Cc2cccc3c2CCN(C(=O)/C(C#N)=C/C(C)(C)CF)C3C)C2(CC2)C1` (single isomer, unassigned) [Compound B195, (E/Z)-2-(5-((7-(2,6-dimethoxy-4-(1,4,5-trimethyl-6-oxo-1,6-dihydropyridin-3-yl)benzyl)-4,7-diazaspiro[2.5]octan-4-yl)methyl)-1-methyl-1,2,3,4-tetrahydroisoquinoline-2-carbonyl)-5-fluoro-4,4-dimethylpent-2-enenitrile], the DC50 was less than 0.00125 µM and the Dmax is greater than 75%.

Consider `COc1cc(-c2cn(C)c(=O)c(C)c2C)cc(OC)c1CN1CCN(Cc2cccc3c2CCN(C(=O)/C(C#N)=C/C(C)(C)CF)[C@@H]3C)C2(CC2)C1` (single isomer, unassigned) [Compound B196, (E/Z)-2-(5-((7-(2,6-dimethoxy-4-(1,4,5-trimethyl-6-oxo-1,6-dihydropyridin-3-yl)benzyl)-4,7-diazaspiro[2.5]octan-4-yl)methyl)-1-methyl-1,2,3,4-tetrahydroisoquinoline-2-carbonyl)-5-fluoro-4,4-dimethylpent-2-enenitrile], for which the 50% degradation concentration (DC50) is 0.00125 to 0.01 µM and the maximal degradation (Dmax) is 70 to 75%.

For `COc1cc(-c2cn(C)c(=O)c(C)c2C)cc(OC)c1CN1CCN(Cc2cccc3c2CCN(C(=O)/C(C#N)=C/C(C)(C)C)[C@H]3C)[C@@H](C)C1` (single isomer, unassigned) [Compound B197], the DC50 lay within 0.025 to 1 µM and the Dmax was 40 to 70%.

Take `COc1cc(-c2cn(C)c(=O)c(C)c2C)cc(OC)c1CN1CCN(Cc2cccc3c2CCN(C(=O)/C(C#N)=C/C(C)(C)C)[C@@H]3C)[C@@H](C)C1` (single isomer, unassigned) [Compound B198]: the DC50 lay within 0.00125 to 0.01 µM and the Dmax was greater than 75%.

`COc1cc(-c2cn(C)c(=O)c(C)c2C)cc(OC)c1CN1CCN(Cc2ccc3c(c2)[C@H](C)N(C(=O)/C(C#N)=C/C(C)(C)CF)CC3)C2(CC2)C1` (single isomer, unassigned) [Compound B201, (E/Z)-2-(7-((7-(2,6-dimethoxy-4-(1,4,5-trimethyl-6-oxo-1,6dihydropyridin-3-yl)benzyl)-4,7-diazaspiro[2.5]octan-4-yl)methyl)-1-methyl-1,2,3,4-tetrahydroisoquinoline-2-carbonyl)-5-fluoro-4,4-dimethylpent-2-enenitrile]: the DC50 lay within 0.025 to 1 µM and the greatest degradation seen (Dmax) was in the range of 40 to 70%.
